This note sets out measurements from ChEMBL document CHEMBL5223109, “The discovery of BMS-737 as a potent, CYP17 lyase-selective inhibitor for the treatment of castration-resistant prostate cancer” (Bioorg Med Chem Lett, 2022).

Molecules are shown by their SMILES.

The target in data set [1] is T1, Steroid 17-alpha-hydroxylase/17,20 lyase (Macaca fascicularis, UniProt Q2XVA1).
T1 sequence (Q2XVA1 whole entry): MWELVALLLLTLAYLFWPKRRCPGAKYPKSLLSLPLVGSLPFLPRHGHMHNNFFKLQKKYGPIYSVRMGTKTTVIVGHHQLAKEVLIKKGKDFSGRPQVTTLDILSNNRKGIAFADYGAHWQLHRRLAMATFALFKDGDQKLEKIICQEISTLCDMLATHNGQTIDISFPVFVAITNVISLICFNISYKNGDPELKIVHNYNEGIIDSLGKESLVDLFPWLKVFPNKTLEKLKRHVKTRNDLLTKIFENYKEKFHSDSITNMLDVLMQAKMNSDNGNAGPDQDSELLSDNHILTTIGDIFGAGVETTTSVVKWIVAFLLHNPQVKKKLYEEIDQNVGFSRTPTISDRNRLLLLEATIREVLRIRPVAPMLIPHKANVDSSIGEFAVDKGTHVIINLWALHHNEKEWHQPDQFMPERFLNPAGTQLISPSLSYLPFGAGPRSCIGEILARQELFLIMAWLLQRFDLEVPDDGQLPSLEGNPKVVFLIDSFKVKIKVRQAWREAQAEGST
Put plainly: Selectivity ratio of IC50 for inhibition of cynomolgus monkey CYP17A1 hydroxylase activity to IC50 for inhibition of cynomolgus monkey CYP17A1 lyase activity. The data set is classed as ADME.

Data set [2] in a line: Metabolic stability in mouse liver microsome assessed as half-life. The data set is classed as ADME. The following applies: liver microsomes.
In data set [3] the target is T2, Steroid 17-alpha-hydroxylase/17,20 lyase (Homo sapiens, UniProt P05093).
T2 sequence (P05093 whole entry): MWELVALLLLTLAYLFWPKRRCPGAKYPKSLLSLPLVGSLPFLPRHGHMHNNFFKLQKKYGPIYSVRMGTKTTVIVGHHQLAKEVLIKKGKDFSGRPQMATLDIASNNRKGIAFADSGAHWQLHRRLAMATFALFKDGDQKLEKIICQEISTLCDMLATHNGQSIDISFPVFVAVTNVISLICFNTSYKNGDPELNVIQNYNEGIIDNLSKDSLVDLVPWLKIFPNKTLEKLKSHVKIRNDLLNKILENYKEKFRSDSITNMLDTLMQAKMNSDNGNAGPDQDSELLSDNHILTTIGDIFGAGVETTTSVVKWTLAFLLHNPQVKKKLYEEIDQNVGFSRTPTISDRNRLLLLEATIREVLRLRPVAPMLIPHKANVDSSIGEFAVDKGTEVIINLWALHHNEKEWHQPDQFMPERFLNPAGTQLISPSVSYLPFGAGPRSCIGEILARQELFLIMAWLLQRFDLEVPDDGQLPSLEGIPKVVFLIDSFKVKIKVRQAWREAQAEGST
Description: Selectivity ratio for inhibition of human CYP17A1 hydroxylase activity to inhibition of human CYP17A1 lyase activity. Type of data set: ADME.

The target in data set [4] is T2, Steroid 17-alpha-hydroxylase/17,20 lyase. Description: Inhibition of human CYP17A1. The data set is classed as ADME.
Data set [5] in a line: Metabolic stability in human liver microsomes assessed as parent compound remaining relative to control. Type of data set: ADME, Microsome.
Data set [6] is described as follows: Metabolic stability in rat liver microsome assessed as half-life. Type of data set: ADME. The following applies: liver microsomes.
The nature of data set [7]: Clearance in cynomolgus monkey at 1 mg/kg, iv. The settings on record: in vivo. The data set is classed as ADME, organism-based, Macaca fascicularis.
For data set [8], the target named is T1, Steroid 17-alpha-hydroxylase/17,20 lyase. Put plainly: In vivo inhibition of CYP17A1 in cynomolgus monkey assessed as fold increase in progesterone level in blood at 1 mg/kg, po measured upto 24 hrs. The data set is classed as functional, organism-based.
In data set [9] the target is T2, Steroid 17-alpha-hydroxylase/17,20 lyase. Put plainly: Inhibition of human CYP17A1 hydroxylase activity. Type of data set: ADME.
The target in a further data set is T3, Cytochrome P450 1A2 (Homo sapiens, UniProt P05177).
T3 sequence (P05177 whole entry): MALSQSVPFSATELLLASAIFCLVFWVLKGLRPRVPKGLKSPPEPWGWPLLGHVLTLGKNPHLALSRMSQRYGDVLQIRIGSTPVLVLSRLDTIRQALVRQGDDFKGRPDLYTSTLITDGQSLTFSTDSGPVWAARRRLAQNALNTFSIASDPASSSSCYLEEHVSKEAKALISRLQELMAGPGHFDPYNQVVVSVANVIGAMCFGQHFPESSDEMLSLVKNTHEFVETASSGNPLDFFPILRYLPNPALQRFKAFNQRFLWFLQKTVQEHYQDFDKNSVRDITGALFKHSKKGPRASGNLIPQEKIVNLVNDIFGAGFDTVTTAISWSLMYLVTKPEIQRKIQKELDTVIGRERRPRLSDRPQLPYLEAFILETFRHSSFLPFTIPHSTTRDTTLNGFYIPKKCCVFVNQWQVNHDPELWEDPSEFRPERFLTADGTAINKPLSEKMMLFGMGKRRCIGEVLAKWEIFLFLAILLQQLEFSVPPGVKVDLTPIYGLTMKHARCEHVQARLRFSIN
Put plainly: Inhibition of recombinant human CYP1A2. The data set is classed as ADME.

Data set [10] deals with T4, Cytochrome P450 11B1, mitochondrial (Homo sapiens, UniProt P15538).
T4 sequence (P15538 whole entry): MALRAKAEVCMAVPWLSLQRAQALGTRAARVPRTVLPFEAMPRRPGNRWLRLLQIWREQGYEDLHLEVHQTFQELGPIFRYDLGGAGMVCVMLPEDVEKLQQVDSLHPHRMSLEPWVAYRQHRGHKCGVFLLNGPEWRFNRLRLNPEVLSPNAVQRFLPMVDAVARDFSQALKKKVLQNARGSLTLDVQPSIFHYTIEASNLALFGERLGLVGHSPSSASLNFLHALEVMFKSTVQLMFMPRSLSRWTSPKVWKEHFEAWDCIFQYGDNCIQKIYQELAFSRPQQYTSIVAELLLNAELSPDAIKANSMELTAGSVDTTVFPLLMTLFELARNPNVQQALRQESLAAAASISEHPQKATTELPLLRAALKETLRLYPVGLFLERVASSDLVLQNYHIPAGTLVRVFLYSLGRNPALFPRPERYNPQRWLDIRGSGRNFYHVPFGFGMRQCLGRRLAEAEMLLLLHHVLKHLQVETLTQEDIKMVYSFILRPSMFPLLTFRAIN
Put plainly: Inhibition of human CYP11B1. The data set is classed as ADME.

Data set [11] can be described thus: Metabolic stability in mouse liver microsomes assessed as parent compound remaining. The data set is classed as ADME, Microsome.
Data set [12] can be described thus: Metabolic stability in cynomolgus monkey liver microsomes assessed as parent compound remaining relative to control. Type of data set: ADME, Macaca fascicularis, Microsome.
In the next data set the target is Cytochrome P450 3A4 (Homo sapiens, UniProt P08684). Put plainly: Induction of recombinant human CYP3A4. The data set is classed as ADME. The following applies: recombinant enzyme.
Sequence of Cytochrome P450 3A4 (P08684 whole entry): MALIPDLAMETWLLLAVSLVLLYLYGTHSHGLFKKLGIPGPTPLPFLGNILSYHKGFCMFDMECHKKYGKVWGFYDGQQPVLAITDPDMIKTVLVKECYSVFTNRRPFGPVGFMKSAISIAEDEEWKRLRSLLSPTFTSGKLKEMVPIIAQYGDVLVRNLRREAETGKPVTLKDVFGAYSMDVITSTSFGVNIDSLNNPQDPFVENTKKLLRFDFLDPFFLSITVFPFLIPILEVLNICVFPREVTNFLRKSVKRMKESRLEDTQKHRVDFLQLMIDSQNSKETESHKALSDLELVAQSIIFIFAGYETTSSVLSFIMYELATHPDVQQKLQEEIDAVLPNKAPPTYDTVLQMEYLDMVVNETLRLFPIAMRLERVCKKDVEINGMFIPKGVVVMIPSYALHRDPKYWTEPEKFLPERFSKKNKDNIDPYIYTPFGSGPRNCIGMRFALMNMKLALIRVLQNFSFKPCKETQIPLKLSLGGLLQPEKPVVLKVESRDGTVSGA
Data set [13] addresses T2, Steroid 17-alpha-hydroxylase/17,20 lyase. Put plainly: Inhibition of human CYP17A1 lyase activity. Type of data set: ADME.

With `Nc1ncncc1-c1ccnc2c1cnn2-c1ccc(F)cc1`, in [1], the “Ratio IC50” value was determined as 5. Besides, the results for the half-life in [2] and in [6] were 35 min and 72 min, respectively. The Ratio in data set [3] stood at 11. Further, the IC50 in [4] is 16 nM; in data set [9], 91 nM; at Cytochrome P450 1A2, over 40000 nM; in [10], 2610 nM; in [13], 8 nM. Further, the Stability is given as 100% in [5], 85% in data set [11] and 96% in [12]. In data set [7], this compound showed a clearance of 2.8 mL/min/kg. In addition, the “fold change (FC)” value in data set [8] worked out at 14. Moreover, the Activity entry at Cytochrome P450 3A4 is reported as “Not Active”.
